Structures can show the parent of a compound that is named as a salt.
Legend:
[1] = test system: SF-nanobacteria; experiment: Chemical disinfection of SF-nanobacteria; format: cell-based; design: Resistance of SF-nanobacteria to chemical disinfectants (survival), exposure time 10 min: key to the marks not given beside the values; conditions: for Resistance of SF-nanobacteria to chemical disinfectants (survival), exposure time 30 min: 30 min exposure at room temperature; for Resistance of SF-nanobacteria to chemical disinfectants (survival), exposure time 30 min / Resistance of SF-nanobacteria to chemical disinfectants (survival), exposure time 10 min: survival after subculture compared to diluent only; for Effect of chemical treatment on SF-nanobacteria (in words): room temperature exposure; for Resistance of SF-nanobacteria to chemical disinfectants (survival), exposure time 10 min: 10 min exposure at room temperature
Source text: The cultures were exposed to the disinfectants after removal of the culture medium. For the autoclaving, UV, microwave, and drying treatments, the medium was removed and an equal amount of PBS used instead. For the heat treatments, the SF-nanobacteria were harvested by scraping the culture vessel followed by centrifugation of the medium. The obtained pellet was suspended in PBS and used in the test. After treatments the SF-nanobacteria were subcultured in DMEM medium and the growth followed by light microscopy to see the adherence and typical mineralization.
The concentrations of the chemicals used were those commonly used for disinfection or as instructed by the manufacturer. The chemicals included 70% ethanol, 2% glutaraldehyde, 4% formaldehyde, 0.5% hypochlorite, 3% hydrogen peroxide, 1M hydrochloric acid (HCl), 1M sodium hydroxide (NaOH), 1% sodium dodecyl sulfate (SDS), 1% Tween 80, 1% Triton X-100, 3M guanidium-hydrochloride, 3M urea, 1% Virkon® (Antec International Ltd., Suffolk, England; 100% product contains 50% potassium persulfate, 5% sulfaminoic acid), 1.5% Erifenol® (Orion OY, Finland; 100% product contains <5% NaOH, <5% o-benzyl-p-chlorophenol, 5-15% p-chloro-m-cresol), 1% Klorilli® (Orion OY, Finland; 100% product contains sodium metasilicate, sodium N-chloro-p-toluenesulfonamide-3-hydrate and 20,000 ppm active chlorine), and 3% Buraton® (Schulke & Mayr, Germany; 100% product contains 4.5% formaldehyde, 6.8% glyoxal, 1.5% glyoxylic acid, 6% dimethylaurylbenzyl-ammonium chloride). The dilutions to be used were freshly prepared on the day of exposure in sterile distilled water. As a positive control, only diluent was used. Negative control contained only culture medium.
The SF-nanobacteria were exposed to the chemicals for 10 and 30 minutes at room temperature after removal of the culture medium. After exposure, the disinfectant solution was removed and fresh medium added (with a neutralization step in the case of HCl and NaOH). If any significant deattachment occurred, nanobacteria were recovered by centrifugation, and subcultured.

[2] = test system: nanobacteria; experiment: Antibiotic susceptibility of nanobacteria, Minimal Inhibition Concentration (MIC) in 96-well plates; format: cell-based
Protocol: Antibiotic sensitivity tests were carried out by measuring Minimal Inhibition Concentration (MIC), a common practice in clinical microbiology.
The tests were performed in 96-well plates. DMEM (commercial cell culture medium) containing 10% gamma-irradiated fetal bovine serum (FBS)(dose about 3 Mrads; this treatment inactivates nanobacteria in the serum so that the basic medium is sterile) was used as the basic culture medium. These components are commercially available, e.g., from Gibco. The antibiotic stock solutions were sterile filtered through 0.2 micrometer filters. The stock solutions were then serially diluted (into the basal culture medium) to provide a final starting concentration of 0.5 mg/ml and 1:2 dilutions therefrom, unless otherwise specified. For each antibiotic three parallel tests were performed using all the antibiotic dilutions and, additionally, positive and negative control experiments. […] 100 μl of dilutions of the nanobacteria inoculum were added to all wells except the negative controls. The plates were incubated at mammalian cell culture conditions (37° Celsius, 5% carbon dioxide, 95% humid air). The absorbance values at 650 nm were recorded by using an ELISA reader at the start, and at 4, 8, 12, 14 days. […] Calculations were based on absorbance curves where absorbance was plotted against concentration of the antibiotic.

[3] = test system: serum nanobacteria; experiment: Antibiotic sensitivity test of serum nanobacteria (cell culture antibiotics); format: cell-based; conditions: 100 μg/ml, cultured one month in medium containing 10% fetal bovine serum
Protocol: Nanobacteria were cultured with 10% fetal bovine serum in DMEM medium (serum nanobacteria) for one month at 37° C. in an atmosphere of 5% CO2-95% air. The cultures were harvested by centrifugation. For the autoclaving, UV, microwave, heating and drying treatments, the harvested nanobacteria were suspended in phosphate buffered saline (pH 7.4; PBS). After treatments, subculturing of the nanobacteria was made in 10% gamma irradiated fetal bovine serum in DMEM medium. The growth of serum nanobacteria was followed by light microscopy and absorbance measurement with a spectrophotometer at 650 nm.
The 1× concentrations are those recommended for cell culture. After 10 days culture in 10% serum containing DMEM with the antibiotic, growth was compared to that of nanobacteria cultures without antibiotics present.

[4] = test system: nanobacterial biofilm; experiment: Nanobacterial biofilm formation on commercial stents in vitro; format: cell-based, nanobacteria; conditions: salts added to the culture medium; two commercial plastic-type stents
Source text: (§1) Nanobacteria also absorb some heavy metals. Nanobacteria can be stained well with silver or copper compounds. […] Silver and copper parts or platings on surfaces, such as catheters or stents, can provide an antinanobacterial effect by preventing nanobacterial biofilm formation. In in vitro tests nanobacteria avidly formed biofilm on two different commercial stents made of a plastic type of material. This biofilm formation was prevented by the addition of silver or copper salts to the culture medium.

[5] = test system: nanobacteria; experiment: Nanobacterial growth in culture media with metal ions; format: cell-based; conditions: added to culture media at submillimolar levels
Source text: as §1

[6] = test system: calculus formation on teeth; conditions: laboratory animals; cited from earlier work
[7] = test system: bone resorption; conditions: both in vitro and in vivo; cited from earlier work
[8] = test system: nanobacteria; experiment: Treatment of human patients infected with nanobacteria; format: in vivo; conditions: person, chronic fatigue syndrome
[9] = test system: nanobacterial stone formation on human teeth; conditions: fluoride concentrations typically present in toothpastes

Row | Compound | Resistance of SF-nanobacteria to chemical disinfectants (survival), exposure time 30 min [1] | Kind of antinanobacterial effect in the in vitro test (in words) [2] | other results
1 | N=C(N)N [3M Guanidium HCl, guanidium-hydrochloride] | 0 | – | Effect of chemical treatment on SF-nanobacteria (in words) [1]: resulted in the deattachment of the SF-nanobacteria
2 | O=C(O)CN(CCN(CC(=O)O)CC(=O)O)CC(=O)O [EDTA, ethylenediaminetetraacetic acid] | – | antinanobacterial effects | –
3 | Neomycin | – | bacteriostatic effects at high antibiotic concentrations | –
4 | OO [3% H2O2, hydrogen peroxide] | +++ | – | Resistance of SF-nanobacteria to chemical disinfectants (survival), exposure time 10 min [1]: +++
5 | CC(=O)Oc1ccccc1C(=O)O [Acetylsalicylic acid] | – | weak | –
6 | O=CCCCC=O [2% glutaraldehyde, glutaraldehyde] | +++ | – | Resistance of SF-nanobacteria to chemical disinfectants (survival), exposure time 10 min [1]: +++
7 | Gentamycin | – | bacteriostatic effects at high antibiotic concentrations | Morphology of nanobacteria in SEM [3]: changes in the morphology
8 | [Cu] [copper] | – | – | Biofilm formation on stents [4]: prevented; Nanobacterial growth [5]: prevented nanobacterial growth
9 | Cl [1M HCl, hydrochloric acid] | ++ | – | Effect of chemical treatment on SF-nanobacteria (in words) [1]: dissolved the apatite layer of nanobacteria, but remineralization was observed after addition of culture medium
10 | CC(O)(P(=O)(O)O)P(=O)(O)O [Ethidronate] | – | bacteriocidic effect | –
11 | OCl [0.5% hypochlorite, hypochlorite] | +++ | – | Resistance of SF-nanobacteria to chemical disinfectants (survival), exposure time 10 min [1]: +++
12 | [Na+].[OH-] [1M NaOH, sodium hydroxide] | +++ | – | Resistance of SF-nanobacteria to chemical disinfectants (survival), exposure time 10 min [1]: +++
13 | Vitamin D | – | very weak inhibitory effect | –
14 | O=P(O)(O)C(Cl)(Cl)P(=O)(O)O [Chlodronate] | – | bacteriocidic effect | –
15 | COc1cc(Cc2cnc(N)nc2N)cc(OC)c1OC [Trimethoprim] | – | highly effective but was only bacteriostatic | –
16 | Penicillin | – | – | Calculus formation [6]: do not
17 | Triton X-100 [1% Triton X-100] | +++ | – | Resistance of SF-nanobacteria to chemical disinfectants (survival), exposure time 10 min [1]: +++

Row | Compound | Resistance of SF-nanobacteria to chemical disinfectants (survival), exposure time 30 min [1] | Kind of antinanobacterial effect in the in vitro test (in words) [2] | other results
18 | CC1=CC(=O)c2ccccc2C1=O [Vitamin K (Menadion), Menadion] | – | toxic to nanobacteria at concentrations that are not harmful to mammalian cells | –
19 | CCCCCCCCCCCCOS(=O)(=O)[O-].[Na+] [1% SDS, sodium dodecyl sulfate] | +++ | – | Resistance of SF-nanobacteria to chemical disinfectants (survival), exposure time 10 min [1]: +++
20 | Nc1ccc(C(=O)O)c(O)c1 [para-aminosalicylic acid] | – | – | MIC value (in words) ([2]; compared with acetylsalicylic acid): identical with acetylsalicylic acid
21 | CN[C@H](CC(C)C)C(=O)N[C@H]1C(=O)N[C@@H](CC(N)=O)C(=O)N[C@H]2C(=O)N[C@H]3C(=O)N[C@H](C(=O)N[C@H](C(=O)O)c4cc(O)cc(O)c4-c4cc3ccc4O)[C@H](O)c3ccc(c(Cl)c3)Oc3cc2cc(c3O[C@@H]2O[C@H](CO)[C@@H](O)[C@H](O)[C@H]2O[C@H]2C[C@](C)(N)[C@H](O)[C@H](C)O2)Oc2ccc(cc2Cl)[C@H]1O [Vancomycin] | – | effective bacteriostat against nanobacteria at relatively high concentrations | –
22 | O=C(O)CN(CCOCCOCCN(CC(=O)O)CC(=O)O)CC(=O)O [EGTA] | – | antinanobacterial effects | –
23 | NCCCC(O)(P(=O)(O)O)P(=O)(O)O [alendronate] | – | – | Potency relative to etidronate [7]: approximately 700 fold
24 | CN(C)[C@@H]1C(O)=C(C(N)=O)C(=O)[C@@]2(O)C(O)=C3C(=O)c4c(O)cccc4[C@@](C)(O)[C@H]3C[C@@H]12 [tetracycline HCl] | – | – | Nanobacteria status of patient samples ([8]; 500 mg 4 times per day for one month, then 500 mg twice a day for 5 months, urine and serum samples): nanobacteria negative after one month therapy; Patient's condition ([8]; after one month therapy): improved
25 | C[C@H]1c2cccc(O)c2C(=O)C2=C(O)[C@]3(O)C(=O)C(C(N)=O)=C(O)[C@@H](N(C)C)[C@@H]3[C@@H](O)[C@@H]21 [Doxycyclin, Doxycycline] | – | effective on inhibiting nanobacterial growth | MIC values calculated from the 8 day results ([2]; 8 day results): around 1 mg per liter; Stability under the test conditions ([2]; MIC test culture conditions): not stable under the test conditions
26 | CCO [70% ethanol, ethanol] | +++ | – | Resistance of SF-nanobacteria to chemical disinfectants (survival), exposure time 10 min [1]: +++
27 | O=C(O)CC(O)(CC(=O)O)C(=O)O [Citrate] | – | effective antinanobacterial agent | –
28 | silver | – | – | Biofilm formation on stents [4]: prevented; Nanobacterial growth [5]: prevented nanobacterial growth
29 | CC1(C)S[C@@H]2[C@H](NC(=O)[C@H](N)c3ccccc3)C(=O)N2[C@H]1C(=O)O [Ampicillin] | – | weak bacteriostatic effect | –
30 | CCCCCCCC/C=C\CCCCCCCC(=O)OCCOCC(OCCO)C1OCC(OCCO)C1OCCO (stereo not shown) [1% Tween 80, Tween 80] | +++ | – | Resistance of SF-nanobacteria to chemical disinfectants (survival), exposure time 10 min [1]: +++
31 | [H]/N=C(/N)N[C@H]1[C@H](O)[C@@H](O)[C@H](O[C@@H]2O[C@@H](C)[C@](O)(C=O)[C@H]2O[C@@H]2O[C@@H](CO)[C@H](O)[C@@H](O)[C@@H]2NC)[C@@H](N/C(N)=N\[H])[C@@H]1O [Streptomycin] | – | bacteriostatic effects at high antibiotic concentrations | –
32 | NC(N)=O [3M Urea, urea] | +++ | – | Resistance of SF-nanobacteria to chemical disinfectants (survival), exposure time 10 min [1]: +++
33 | F [Fluoride] | – | – | Nanobacterial stone formation on human teeth [9]: inhibit nanobacterial stone formation
34 | C=O [4% formaldehyde, formaldehyde] | +++ | – | Resistance of SF-nanobacteria to chemical disinfectants (survival), exposure time 10 min [1]: +++

Reference: patent US20050036904A1, “Methods for eradication of nanobacteria” (priority 1998, published 2005)
